In assay [1] the target is T1, Glycogen synthase kinase-3 beta (Homo sapiens, UniProt P49841). Particulars: dose 10.0 µM.
Target sequence in this assay (P49841 whole entry, looked up): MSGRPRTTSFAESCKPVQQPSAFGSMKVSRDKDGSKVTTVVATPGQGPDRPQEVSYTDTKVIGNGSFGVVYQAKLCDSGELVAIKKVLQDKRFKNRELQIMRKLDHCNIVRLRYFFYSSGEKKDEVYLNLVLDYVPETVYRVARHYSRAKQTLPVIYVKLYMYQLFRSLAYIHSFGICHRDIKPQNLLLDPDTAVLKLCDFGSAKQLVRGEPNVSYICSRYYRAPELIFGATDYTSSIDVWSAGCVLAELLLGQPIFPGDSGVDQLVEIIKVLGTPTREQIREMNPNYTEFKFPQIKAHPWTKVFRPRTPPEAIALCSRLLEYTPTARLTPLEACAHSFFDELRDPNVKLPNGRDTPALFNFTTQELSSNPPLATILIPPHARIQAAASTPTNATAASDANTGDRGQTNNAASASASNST
For assay [2], the target named is Casein kinase II subunit alpha (Homo sapiens) (UniProt P68400). Particulars: dose 10.0 µM.
Assay [3] deals with Dual specificity tyrosine-phosphorylation-regulated kinase 2 (Homo sapiens) (UniProt Q92630). To be noted: dose 10.0 µM.
The target in assay [4] is Dual specificity protein kinase CLK2 (Homo sapiens, UniProt P49760).
Assay [5] addresses T2, Dual specificity tyrosine-phosphorylation-regulated kinase 1A (Homo sapiens, UniProt Q13627).
Assay [6] deals with T3, Dual specificity protein kinase CLK1 (Homo sapiens, UniProt P49759). Particulars: dose 10.0 µM.
Target sequence in this assay (P49759 whole entry, looked up): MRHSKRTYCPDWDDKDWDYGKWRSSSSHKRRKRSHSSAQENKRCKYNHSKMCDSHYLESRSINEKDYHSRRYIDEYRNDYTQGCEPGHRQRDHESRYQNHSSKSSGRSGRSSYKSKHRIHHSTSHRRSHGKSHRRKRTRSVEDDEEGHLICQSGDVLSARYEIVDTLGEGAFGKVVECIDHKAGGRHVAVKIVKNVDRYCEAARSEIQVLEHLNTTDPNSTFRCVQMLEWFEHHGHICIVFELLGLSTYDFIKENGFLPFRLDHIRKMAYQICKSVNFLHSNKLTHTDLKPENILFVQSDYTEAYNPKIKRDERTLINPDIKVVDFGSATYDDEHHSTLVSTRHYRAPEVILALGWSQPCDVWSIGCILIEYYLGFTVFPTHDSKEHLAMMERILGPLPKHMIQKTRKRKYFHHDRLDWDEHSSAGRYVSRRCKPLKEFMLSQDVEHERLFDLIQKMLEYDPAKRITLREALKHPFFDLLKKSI
Assay [7] has as its target BMP-2-inducible protein kinase (Homo sapiens) (UniProt Q9NSY1). Particulars: dose 10.0 µM.
Assay [8] concerns the target T3, Dual specificity protein kinase CLK1. The class given is cell-based, Sf9.
Target sequence in this assay (P49759 whole entry): as the sequence (P49759 whole entry, looked up) above
For assay [9], the target named is Dual specificity protein kinase CLK3 (Homo sapiens, UniProt P49761). To be noted: dose 10.0 µM.
The target in assay [10] is Aurora kinase A (Homo sapiens) (UniProt O14965). To be noted: dose 10.0 µM.
For assay [11], the target named is Serine/threonine-protein kinase pim-3 (Homo sapiens) (UniProt Q86V86). Particulars: dose 10.0 µM.
Assay [12] addresses Casein kinase I isoform epsilon (Homo sapiens, UniProt P49674).
The target of assay [13] is T1, Glycogen synthase kinase-3 beta. The class given is cell-based, Sf9.
Target sequence in this assay (P49841 whole entry): as the sequence (P49841 whole entry, looked up) above
In assay [14] the target is Calcium/calmodulin-dependent protein kinase kinase 2 (Homo sapiens) (UniProt Q96RR4). Particulars: dose 10.0 µM.
In assay [15] the target is Serine/threonine-protein kinase haspin (Homo sapiens) (UniProt Q8TF76). Particulars: dose 10.0 µM.
Assay [16] has as its target Homeodomain-interacting protein kinase 2 (Homo sapiens) (UniProt Q9H2X6). To be noted: dose 10.0 µM.
Assay [17] deals with T4, Dual specificity tyrosine-phosphorylation-regulated kinase 2 (Homo sapiens, UniProt Q92630).
T4 sequence (Q92630 whole entry): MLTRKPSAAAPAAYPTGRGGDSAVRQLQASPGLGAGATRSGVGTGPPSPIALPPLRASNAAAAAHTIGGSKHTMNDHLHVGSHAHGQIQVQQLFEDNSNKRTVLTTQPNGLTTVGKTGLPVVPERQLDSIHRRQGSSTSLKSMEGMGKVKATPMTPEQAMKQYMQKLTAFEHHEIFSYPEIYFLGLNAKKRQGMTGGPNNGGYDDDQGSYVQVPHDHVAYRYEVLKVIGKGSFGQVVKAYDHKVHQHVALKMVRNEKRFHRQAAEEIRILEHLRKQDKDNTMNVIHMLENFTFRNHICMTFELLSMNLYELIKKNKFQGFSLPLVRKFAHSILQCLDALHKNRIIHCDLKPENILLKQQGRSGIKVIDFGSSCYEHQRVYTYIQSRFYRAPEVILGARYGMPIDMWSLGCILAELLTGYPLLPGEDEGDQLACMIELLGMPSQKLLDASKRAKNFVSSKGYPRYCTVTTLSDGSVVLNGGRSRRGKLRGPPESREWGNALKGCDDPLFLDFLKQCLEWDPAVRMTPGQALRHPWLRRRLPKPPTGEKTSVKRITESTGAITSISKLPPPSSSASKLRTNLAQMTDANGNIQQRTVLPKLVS

Assay [18] addresses T5, Dual specificity tyrosine-phosphorylation-regulated kinase 4 (Homo sapiens, UniProt Q9NR20).
T5 sequence (Q9NR20 whole entry): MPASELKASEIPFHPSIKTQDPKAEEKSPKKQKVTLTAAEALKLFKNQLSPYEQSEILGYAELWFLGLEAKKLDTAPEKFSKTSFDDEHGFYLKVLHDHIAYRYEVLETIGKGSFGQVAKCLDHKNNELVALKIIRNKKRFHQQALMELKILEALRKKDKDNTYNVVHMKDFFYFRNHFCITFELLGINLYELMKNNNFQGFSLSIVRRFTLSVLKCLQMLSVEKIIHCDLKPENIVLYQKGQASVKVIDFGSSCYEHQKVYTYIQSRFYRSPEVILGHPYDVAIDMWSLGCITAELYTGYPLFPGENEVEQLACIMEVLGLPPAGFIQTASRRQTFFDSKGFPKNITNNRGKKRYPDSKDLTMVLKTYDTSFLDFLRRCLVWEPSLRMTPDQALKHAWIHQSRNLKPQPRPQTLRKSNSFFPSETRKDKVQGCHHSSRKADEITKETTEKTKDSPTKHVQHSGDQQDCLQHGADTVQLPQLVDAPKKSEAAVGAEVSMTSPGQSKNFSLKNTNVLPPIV

In assay [19] the target is T2, Dual specificity tyrosine-phosphorylation-regulated kinase 1A. Particulars: dose 10.0 µM.
The target of assay [20] is Cyclin-dependent kinase 5/CDK5 activator 1 (Homo sapiens, UniProt Q00535). In kind it is cell-based, Sf9.
The target in assay [21] is T6, Dual specificity tyrosine-phosphorylation-regulated kinase 3 (Homo sapiens, UniProt O43781).
T6 sequence (O43781 whole entry): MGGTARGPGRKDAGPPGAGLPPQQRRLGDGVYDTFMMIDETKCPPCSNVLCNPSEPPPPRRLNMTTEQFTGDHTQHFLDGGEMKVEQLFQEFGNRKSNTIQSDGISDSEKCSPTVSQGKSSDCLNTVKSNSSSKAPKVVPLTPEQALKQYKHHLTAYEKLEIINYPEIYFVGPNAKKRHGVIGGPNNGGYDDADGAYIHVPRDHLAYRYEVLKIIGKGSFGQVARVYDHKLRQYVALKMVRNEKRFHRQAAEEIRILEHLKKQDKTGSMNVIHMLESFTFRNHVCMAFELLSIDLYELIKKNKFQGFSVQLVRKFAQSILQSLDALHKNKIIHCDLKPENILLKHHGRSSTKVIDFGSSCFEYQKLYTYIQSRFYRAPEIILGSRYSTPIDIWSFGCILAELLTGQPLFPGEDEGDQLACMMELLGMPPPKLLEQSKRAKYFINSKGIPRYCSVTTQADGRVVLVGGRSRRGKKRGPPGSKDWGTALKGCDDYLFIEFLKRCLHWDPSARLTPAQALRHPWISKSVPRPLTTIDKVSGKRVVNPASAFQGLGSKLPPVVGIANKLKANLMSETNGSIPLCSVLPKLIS

In assay [22] the target is Dual specificity protein kinase CLK4 (Homo sapiens, UniProt Q9HAZ1).

pIC50: −log10 of the molar value.

One may read the ΔTm as the change in melting temperature against a reference sample. One may read the pIC50 as the IC50 on a negative log10 scale, so that one unit is a factor of ten.

Chain of Serine/threonine-protein kinase haspin (Homo sapiens) (Q8TF76 whole entry): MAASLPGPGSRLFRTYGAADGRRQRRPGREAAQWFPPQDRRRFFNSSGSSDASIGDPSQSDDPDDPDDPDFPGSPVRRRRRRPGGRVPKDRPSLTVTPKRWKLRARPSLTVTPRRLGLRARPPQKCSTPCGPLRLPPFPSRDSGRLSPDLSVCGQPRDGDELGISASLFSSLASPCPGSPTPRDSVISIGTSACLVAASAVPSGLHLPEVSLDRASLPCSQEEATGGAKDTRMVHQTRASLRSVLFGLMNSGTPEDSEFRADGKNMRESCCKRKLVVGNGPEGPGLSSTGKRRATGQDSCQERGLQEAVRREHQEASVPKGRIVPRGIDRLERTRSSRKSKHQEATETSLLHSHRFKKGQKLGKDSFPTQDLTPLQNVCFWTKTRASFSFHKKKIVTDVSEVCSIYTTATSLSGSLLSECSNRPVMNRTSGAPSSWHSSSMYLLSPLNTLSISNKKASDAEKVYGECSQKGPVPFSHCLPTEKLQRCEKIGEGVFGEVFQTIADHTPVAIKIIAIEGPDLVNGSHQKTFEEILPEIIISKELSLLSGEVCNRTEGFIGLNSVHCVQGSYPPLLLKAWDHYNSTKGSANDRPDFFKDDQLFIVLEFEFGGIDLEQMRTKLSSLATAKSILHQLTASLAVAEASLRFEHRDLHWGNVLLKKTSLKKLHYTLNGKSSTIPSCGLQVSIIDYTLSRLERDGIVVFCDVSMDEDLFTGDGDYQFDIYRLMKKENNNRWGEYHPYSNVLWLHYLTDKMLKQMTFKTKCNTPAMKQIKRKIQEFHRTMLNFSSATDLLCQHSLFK
Chain of Casein kinase II subunit alpha (Homo sapiens) (P68400 whole entry, looked up): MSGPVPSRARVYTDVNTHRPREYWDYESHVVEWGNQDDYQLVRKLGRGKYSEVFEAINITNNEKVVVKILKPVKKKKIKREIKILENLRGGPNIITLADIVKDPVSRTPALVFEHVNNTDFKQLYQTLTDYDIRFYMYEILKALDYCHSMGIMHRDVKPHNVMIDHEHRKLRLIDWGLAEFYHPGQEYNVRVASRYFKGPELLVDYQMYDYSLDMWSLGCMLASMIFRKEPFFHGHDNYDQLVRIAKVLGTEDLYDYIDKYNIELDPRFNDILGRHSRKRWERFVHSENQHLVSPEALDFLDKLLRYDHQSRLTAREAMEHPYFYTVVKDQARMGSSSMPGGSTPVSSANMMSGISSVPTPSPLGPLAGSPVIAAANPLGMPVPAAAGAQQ
Chain of Cyclin-dependent kinase 5/CDK5 activator 1 (Q00535 whole entry): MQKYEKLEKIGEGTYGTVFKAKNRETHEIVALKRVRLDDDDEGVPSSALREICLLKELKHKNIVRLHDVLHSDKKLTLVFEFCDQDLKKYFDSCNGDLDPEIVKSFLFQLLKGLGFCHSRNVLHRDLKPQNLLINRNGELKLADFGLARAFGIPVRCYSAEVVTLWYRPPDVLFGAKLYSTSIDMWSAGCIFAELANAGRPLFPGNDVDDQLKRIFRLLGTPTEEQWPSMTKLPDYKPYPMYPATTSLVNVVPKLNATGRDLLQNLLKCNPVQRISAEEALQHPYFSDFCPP
Chain of Cyclin-dependent kinase 5/CDK5 activator 1 (Q15078 whole entry, further chain): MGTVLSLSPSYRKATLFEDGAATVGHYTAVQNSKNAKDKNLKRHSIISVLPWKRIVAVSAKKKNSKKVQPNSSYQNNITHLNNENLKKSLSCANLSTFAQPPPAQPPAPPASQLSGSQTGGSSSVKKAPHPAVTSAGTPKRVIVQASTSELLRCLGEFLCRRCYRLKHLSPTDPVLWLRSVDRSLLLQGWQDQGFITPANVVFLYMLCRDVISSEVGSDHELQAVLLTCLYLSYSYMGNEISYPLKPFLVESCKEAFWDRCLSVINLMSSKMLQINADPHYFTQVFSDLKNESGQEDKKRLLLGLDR
Chain of Dual specificity protein kinase CLK4 (Q9HAZ1 whole entry): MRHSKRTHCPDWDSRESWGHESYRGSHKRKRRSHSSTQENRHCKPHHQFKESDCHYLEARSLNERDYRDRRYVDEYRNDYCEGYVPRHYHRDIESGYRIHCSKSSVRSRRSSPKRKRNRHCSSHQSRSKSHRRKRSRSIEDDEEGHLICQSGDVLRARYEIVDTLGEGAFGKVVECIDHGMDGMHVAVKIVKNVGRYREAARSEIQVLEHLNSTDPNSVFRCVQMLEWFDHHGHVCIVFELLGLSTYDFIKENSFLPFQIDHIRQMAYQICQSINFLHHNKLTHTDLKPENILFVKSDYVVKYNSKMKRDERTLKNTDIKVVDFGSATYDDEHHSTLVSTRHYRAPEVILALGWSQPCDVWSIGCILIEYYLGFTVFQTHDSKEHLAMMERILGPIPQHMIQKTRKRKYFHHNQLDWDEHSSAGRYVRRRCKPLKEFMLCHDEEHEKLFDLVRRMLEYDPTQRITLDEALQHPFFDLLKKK
Chain of BMP-2-inducible protein kinase (Homo sapiens) (Q9NSY1 whole entry, looked up): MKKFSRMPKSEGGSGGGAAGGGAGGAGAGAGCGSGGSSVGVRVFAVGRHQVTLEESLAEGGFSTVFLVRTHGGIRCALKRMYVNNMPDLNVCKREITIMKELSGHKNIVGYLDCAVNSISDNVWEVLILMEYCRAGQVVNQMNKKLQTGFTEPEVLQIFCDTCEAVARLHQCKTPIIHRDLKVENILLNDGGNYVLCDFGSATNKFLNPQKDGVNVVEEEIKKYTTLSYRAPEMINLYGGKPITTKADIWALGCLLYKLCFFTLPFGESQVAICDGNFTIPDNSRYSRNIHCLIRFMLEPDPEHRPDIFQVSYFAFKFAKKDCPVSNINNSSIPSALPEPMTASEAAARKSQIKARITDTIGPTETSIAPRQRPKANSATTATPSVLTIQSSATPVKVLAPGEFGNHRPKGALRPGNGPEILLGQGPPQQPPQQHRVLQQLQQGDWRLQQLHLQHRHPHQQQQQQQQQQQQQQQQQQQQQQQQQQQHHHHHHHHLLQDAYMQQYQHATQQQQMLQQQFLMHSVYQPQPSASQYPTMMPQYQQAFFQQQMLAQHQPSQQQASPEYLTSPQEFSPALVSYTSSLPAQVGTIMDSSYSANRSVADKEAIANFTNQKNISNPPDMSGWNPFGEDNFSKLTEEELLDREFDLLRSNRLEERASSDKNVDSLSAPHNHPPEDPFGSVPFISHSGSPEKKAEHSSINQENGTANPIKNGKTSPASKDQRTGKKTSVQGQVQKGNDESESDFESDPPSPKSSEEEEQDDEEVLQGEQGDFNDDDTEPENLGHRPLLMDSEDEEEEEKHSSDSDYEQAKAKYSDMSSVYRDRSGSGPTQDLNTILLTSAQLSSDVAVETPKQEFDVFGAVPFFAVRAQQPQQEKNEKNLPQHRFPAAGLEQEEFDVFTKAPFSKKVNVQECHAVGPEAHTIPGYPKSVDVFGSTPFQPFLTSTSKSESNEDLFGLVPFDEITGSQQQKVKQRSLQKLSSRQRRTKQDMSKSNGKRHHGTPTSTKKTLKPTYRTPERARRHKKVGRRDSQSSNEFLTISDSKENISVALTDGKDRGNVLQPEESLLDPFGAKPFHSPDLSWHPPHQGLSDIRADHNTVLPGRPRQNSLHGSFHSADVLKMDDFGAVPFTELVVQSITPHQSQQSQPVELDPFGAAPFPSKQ

As to `O=C1NC(NC23CC4CC(CC(C4)C2)C3)=N/C1=C\c1ccc2scnc2c1`, the ΔTm was 0.9 °C in assay [1]; 0.3 °C in assay [2]; 0 °C in assay [3]; 2 °C in [6]; -0.1 °C in assay [7]; -0.5 °C in assay [9]. The ΔTm in [10] was -0.4 °C; in assay [11], 1 °C; in assay [14], -0.5 °C; in assay [15], -0.1 °C; in [16], -0.4 °C; in [19], 3.2 °C. The pIC50 in assay [4] is 5.08; in assay [5], 5.47; in assay [8], 5.05; in [12], less than 5.00; in assay [13], less than 5.00; in [17] it was less than 5.00. For the same compound, the negative logarithm of the IC50 (pIC50) in assay [18] is less than 5.00; in assay [20] it was less than 5.00; in assay [21], less than 5.00; in [22], 5.46.

The values are drawn from ChEMBL document CHEMBL5360622, “Leucettinibs, a Class of DYRK/CLK Kinase Inhibitors Inspired by the Marine Sponge Natural Product Leucettamine B” (J Med Chem, 2023).
